The record followed here is US8835556B2, “Hydrolytically stable maleimide-terminated polymers” (priority 2002, dated 2014).

For this series the following is noted: buffer.

Description: Typically, such hydrolysis evaluations are carried out at pH 7.5 in phosphate buffer at room temperature and are measured by observing the UV absorption of the maleimide ring.
The half-life of a polymer maleimide can be determined by measuring the concentration of the maleimide-terminated polymer over time using HPLC or by observing the UV absorption of the maleimide ring.
Using HPLC analysis, the rate of hydrolytic degradation of the maleimide ring of several exemplary maleimide-terminated mPEG polymers (average molecular weight 5000 Da) was explored.
The following linkages between the maleimide and the PEG polymer segment were evaluated: amidoethylene (L1-AMDE), amidopentamethylene (L1-AMPE), amidocyclohexylmethyl (L1-MCH), oxybutyl (L3-TEME), oxyhexyl (L3-HEXA), oxyethyl (L3-ET), and oxypropyl (L3-TME).
Hydrolysis studies were conducted on several exemplary stabilized PEG-maleimides as described above in Example 7.

Take “1-(N-maleimidomethyl)-4-(methoxypoly(ethylene glycol)propionamidomethyl)cyclohexane”: the “HALF-LIFE, IN HOURS” value was 20.6 h.

In the case of “1-N-maleimidomethyl-3-(methoxypoly(ethylene glycol)propionamidomethyl)cyclohexane”, the “HALF-LIFE, IN HOURS” value worked out at 64.6 h. As to “mPEG (5K DA)-propylmaleimide [mPEG-TME-MAL]”, the “HALF-LIFE, IN HOURS” value stood at 11.5 h and the “Half-life” value stood at 11.5 h.
